Results reported in patent US12458660B2, “Methods of attenuating an immune response by inhibition of BFL1” (CHILDREN'S HOSPITAL MEDICAL CENTER, priority 2018, dated 2025).
Where two headings read alike, the source gives them in different places.

How the values were obtained:
[1] = target: T1, BCL2A1 (A1) - NOXA binding (Mus musculus, UniProt Q07440, C113S/P104K); test: Competition fluorescence polarization assay, displacement of FITC-labeled mNOXA peptide from A1; settings: for inhibition of NOXA binding in combination: with NSC-15508; for additivity for inhibition of A1-Noxa binding, checkerboard assay: NSC-97318 (P2) with NSC-45195 (P4), wide range of concentrations
T1 construct: A1 residues 1-152 (P104K, C113S) were expressed in the BL21 strain of Escherichia coli; hexa-His-MBP (cleaved yes); made in house; host or cells: Escherichia coli BL21
T1 sequence (Q07440 1-152 P104K/C113S): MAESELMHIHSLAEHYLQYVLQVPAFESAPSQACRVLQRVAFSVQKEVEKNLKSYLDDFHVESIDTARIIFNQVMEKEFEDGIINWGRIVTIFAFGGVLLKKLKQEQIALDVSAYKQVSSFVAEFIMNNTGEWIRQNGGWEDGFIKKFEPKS
Experimental: Representative compounds were additionally tested for inhibition of BH3 binding through competition-based fluorescence polarization (FP) assays. These assays were carried out using fluorescently labeled NOXA peptide which binds within the BH3-binding groove. The FP assay measures the tumbling rate of the labeled NOXA peptide. When NOXA is bound to A1, its rate of tumbling is low (and FP is high), whereas an effective inhibitor compound will displace NOXA, causing a fast rate of tumbling (and low FP value). Initially, a single high-dose experiment was performed with each compound using 100 μM of compound with BCL2A1 and FITC-NOXA, to observe the relative inhibition of the A1-NOXA interaction (FIG. 17B).
These compounds and any that were three standard deviations or more above the thermal shift controls in the DSF assays, along with those that were initially derived from early compounds with reasonable IC50 values, were tested in a dose-response experiment. To this end, 30 putative P2 inhibitors and 44 putative P4 inhibitors had their IC50 values determined. Of the dose responses, there was a surprising enrichment of putative P4 inhibitors among those that had IC50 values less than 50 μM. […] The following linear equation was used in the calculations (Tallarida et al., 2011),
Compounds were additionally tested for specificity of binding by displacement of FITC-labeled mouse NOXA (mNoxa; Peptide 2.0) peptide via fluorescence polarization assay (FP). FP assays were performed in two steps: single-point high-concentration compounds and dose response of fluorescence polarization hits. A1 was added at 3 μM to 100 μM of each compound in 20 mM Tris pH 7, 500 mM NaCl, 0.005% Tween-20 buffer. After addition of 375 nM labeled mNOXA, 96-well plates were incubated overnight at 20° C. in the dark to achieve equilibrium before fluorescence polarization was measured with a Biotek Synergy H2. Autofluorescent compounds and fluorescent quenching compounds were corrected via ratiometric correction as described by Shapiro et al., 2009.
Dose response curves were measured by adding 3 μM A1 to a serial two-fold dilution series of each compound ranging from 400 μM to 781 nM in 20 mM Tris pH 7, 500 mM NaCl, 0.005% Tween-20 buffer. Some compounds were further tested to assess the accuracy of these two-fold dilutions with serial 1.33-fold dilutions. A1, compounds, buffer and lastly, 375 nM FITC-labeled mNOXA were added to each well and incubated in the dark at 20° C. overnight to achieve equilibrium, followed by measurement of polarization. All dose responses were performed in triplicate.

[2] = test system: IA LPS-induced chorioamnionitis (IL-1 signaling); test: LPS-induced chorioamnionitis Rhesus monkey model with IL-1R blockade; format: in vivo, Rhesus macaques (Macaca mulatta)
Excerpt: We utilized the LPS-induced chorioamnionitis Rhesus monkey model system to study the pathogenesis of IUI, and particularly the role of IL-1 signaling in chorioamnionitis. A human recombinant IL-1 receptor antagonist (referred to herein as “hIL-lra” or by its generic name, “anakinra”) which inhibits both IL-1β and IL-lα signaling was used to experimentally block IL-1 signaling.
(§1) All animal procedures were approved by the Institutional Animal Care and Use Committee at the University of California, Davis. Normally cycling, adult female rhesus macaques (Macaca mulatta) (n=43) were time mated. At ˜130 d of gestation (˜80% of term gestation), the pregnant rhesus received either 1 ml saline solution (n=16) or 1 mg LPS (Sigma-Aldrich, St. Louis, MO) in 1 ml saline solution by ultrasound-guided IA injection. Dams were surgically delivered 16 h (n=13) or 48 h (n=8) later. Multiparous macaques and their fetuses were similar in demographics (Table 4). After delivery, fetuses were euthanized with pentobarbital, and fetal tissues were collected. There were no spontaneous deaths or preterm labor in the animals. IL-1 signaling was blocked by recombinant human IL-1R antagonist (rhIL-1RA; Anakinra Sobi, Stockholm, Sweden) given to the pregnant monkey IA (50 mg) and subcutaneous (100 mg) 1 and 3 h before LPS, as previously described (Rueda et al., 2016; FIG. 3).
Both Rhesus and human purified decidua cell suspensions were prepared as previously described (Presicce et al., 2015). Briefly, extra-placental membranes were dissected away from the placenta. Decidua cells were scraped from the amnion-chorion. Amnion was then separated from chorion and flash-frozen for protein and RNA studies. Decidua tissue was washed, and digested with Dispase II (Life Technologies, Grand Island, NY) plus collagenase A (Roche, Indianapolis, IN) for 30 min followed by DNase I (Roche) treatment for another 30 min. Cell suspensions were filtered subjected to Red blood cell lysis and prepared for flow cytometry. Viability was >90% by trypan blue exclusion test.
Commercially available monoclonal antibodies (mAbs) were used for multiparameter flow cytometry (LSR Fortessa 2, BD Biosciences, San Diego, CA) and immunophenotyping was done on fresh chorio-decidua cell suspensions, except for T-cell phenotyping, which was done on cultured cells since cell isolation procedure down-regulates CD4/8 expression. Chorio-decidua cell TNFα expression was measured by flow cytometry with anti-TNF Ab (Cytofix/Cytoperm; BD Bioscience). To measure cytokine expression induced by in vivo exposures, flow cytometry was done on cells immediately after isolation without any stimulation and/or intracellular blockers. For all protocols, cells were treated with […] human immunoglobulin G (IgG) to block Fc receptors, stained for surface markers for 30 min at 4° C. in PBS, washed, and fixed in fixative stabilizing buffer (BD Bioscience). All antibodies were titrated for optimal detection of positive populations and mean fluorescence intensity. At least 500,000 events were recorded for each sample. Doublets were excluded based on forward scatter properties, and dead cells were excluded using LIVE/DEAD Fixable Aqua dead cell stain (Life Technologies). Unstained and negative biological population were used to determine positive staining for each marker. Data were analyzed using FlowJo version 9.5.2 software (TreeStar Inc., Ashland, OR).
Immunofluorescence was performed as previously described (Presicce et al., 2015). Briefly, paraffin embedded Rhesus fetal membrane sections were sectioned, subjected to antigen-retrieval by microwave boiling in citrate buffer followed by incubation with either anti-human CXCL8 (product G265-8; 1:25 dilution; BD Biosciences), or BCL2A1 (product b450; 1:50 dilution; LSBio, Seattle, WA), in 10% normal horse serum/0.2% Tween-20 at 4° C. overnight. […]

[3] = Anakinra (rhIL-1ra) pharmacokinetics in pregnant Rhesus macaques, human IL-1ra ELISA; format: in vivo, Rhesus macaques (Macaca mulatta)
Experimental: Recombinant human IL-1 receptor antagonist (“Anakinra” or “rhIL 1ra”) was injected into the amniotic fluid (“AF”) and subcutaneously in the dams (FIG. 3A). […] The low (0.2%) diffusion of Anakinra from maternal blood to amniotic fluid 2 h after maternal subcutaneous (SC) before the AF Anakinra dosing is notable. In addition, a slower clearance of Anakinra from the AF compared to maternal plasma is observed.
as §1
Cytokine/chemokine concentrations in AF, fetal, and maternal plasma were determined by Luminex using non-human primate multiplex kits (Millipore). Lipids were extracted from the AF using methanol to measure Prostaglandins PGE2 (Oxford Biomedical Research, Oxford, MI) and PGF2a (Cayman Chemical, Ann Arbor, MI) concentrations. Anakinra (rhIL1ra) levels in AF, fetal, and maternal plasma were determined by human IL1ra/IL-1F3 Quantikine ELISA kit (R&D System, Minneapolis, […]). This kit has low cross-reactivity to Rhesus IL-1ra.

[4] = test system: chorio-decidua neutrophils; test: Chorio-decidua neutrophil survival in culture (Annexin V-/7aad- by flow cytometry); format: cell-based, Rhesus
Experimental: Importantly, Bcl2A1 was specifically expressed by CD neutrophils, and rhIL1ra decreased BCL2A1+ neutrophils (FIG. 9B). Neutrophil expression of Bcl2A1 could be constitutive or induced. Since control CAD tissue have very few neutrophils, we compared expression of Bcl2A1 and other important mediators of apoptosis in CD neutrophils vs. blood neutrophils from the same IA LPS-exposed animals.
Neutrophils were cultured overnight (16 h) at 37° C., in 5% CO2 in DMEM:F12 containing 10% fetal bovine serum, 100 IU/ml penicillin, 100 IU/ml streptomycin, and 2 mmol/L glutamine, in 24-well plate ([…] were stained with a cocktail of Abs as above for immunophenotyping and analyzed by flow cytometry within 30 minutes and cell survival was indicated as percentage of Annexin V^−/7aad^− cells (BD Bioscience).
The chosen doses were optimum based on dose response curves that were generated using blood neutrophils. ABT737 concentrations≥1 μM were toxic to the cells (not shown).

primary splenocyte cells = test: In vitro apoptosis assay in activated primary splenocyte cells (trypan blue); format: cell-based, mice; settings: WT and Bax/Bak-/- splenocytes, +/- polybrene
Experimental: An in vitro apoptosis assay utilizing primary splenocyte cells was used as a model system. In this system, compounds were added to wild-type primary splenocyte cells from mice that had been cultured and activated over four days. […] Mice deficient in Bax/Bak are unable to undergo intrinsic apoptosis due to the lack of the executioners in the pathway. […] Polybrene™ (hexadimethrine bromide) is a transfection reagent used to assist negatively-charged DNA molecules in traversal of the plasma membrane. Polybrene was included here to test whether it would improve the activity of negatively charged compounds.
Single-cell suspensions from spleen were generated by maceration through a 100 μm nylon mesh followed by LympholyteM ficoll gradient separation (Cedarlane Labs, Burlington, NC). Purified cells were then cultured on anti-CD3 coated (3 μg/mL, coated overnight, Biolegend, San Diego, CA) six-well plates in the presence of soluble anti-CD28 (2 μg/mL, Bio X Cell, West Lebanon, NH) and IL-2 (10 ng/mL, R&D Systems, Inc., Minneapolis, MN) in RPMI media (Life Technologies, Carlsbad, CA) for 24 hours at 37° C. Cells were then washed and cultured again in IL-2 (10 ng/mL) for 24 hours at 37° C. […]

Cc1cc(/N=N/c2ccc(/N=N/c3c(O)c(S(=O)(=O)O)cc4cc(S(=O)(=O)O)ccc34)cc2C)ccc1/N=N/c1ccc2cc(S(=O)(=O)O)cc(S(=O)(=O)O)c2c1 [Compound 1.004]
increase in inhibition relative to NSC-45195 ([1]; SAR comparison): roughly a two-fold increase in inhibition | inhibition of NOXA binding in combination [1]: cooperative inhibition

rhIL1ra: human recombinant IL-1 receptor antagonist which inhibits both IL-1β and IL-1α signaling
LPS induced amniotic fluid concentration of PGE2 ([2]; ELISA of lipid extract): decreased | LPS-induced pIRAK1 in the amnion ([2]; IA LPS 16 h, immunoblot): decreased | expression of CSF3 in the amnion ([2]; IA LPS 16 h, mRNA): decreased | expression of CXCL8 in the amnion ([2]; IA LPS 16 h, mRNA): decreased | expression of IL6 in the amnion ([2]; IA LPS 16 h, mRNA): decreased | number (counts) of chorio-decidua neutrophils ([2]; IA LPS, FIG. 5B): to near controls levels | reduction of chorio-decidua neutrophil numbers ([2]; IA LPS, blocking IL-1R): ~90% | overall CD leukocyte counts ([2]; IA LPS, data not shown): decreased | CD16 expression in CD neutrophils ([2]; IA LPS, flow cytometry): to near control levels | CD63 expression in CD neutrophils ([2]; IA LPS, flow cytometry): to near control levels | chorio-decidua B-cell numbers ([2]; IA LPS, flow cytometry): to control levels | frequency of TNFα+ CD neutrophils ([2]; IA LPS, flow cytometry): reversed | neutrophil accumulation in the CD ([2]; IA LPS, flow cytometry): reversed | CAD expression of Bcl2A1 ([2]; LPS-exposed animals, quantitative PCR): reversed | BCL2A1+ neutrophils ([2]; chorio-decidua interface, cell count/HPF): decreased | IA LPS induced CD neutrophils expressing CXCL8 ([2]; immuno-histology): decreased | LPS induced amniotic fluid concentration of CXCL8 ([2]; multiplex ELISA): decreased | LPS induced amniotic fluid concentration of IL6 ([2]; multiplex ELISA): decreased | LPS induced amniotic fluid concentration of MCP1 ([2]; multiplex ELISA): decreased | diffusion from maternal blood to amniotic fluid ([3]; 2 h after maternal subcutaneous dose, before AF dosing): 0.2% | transfer to fetal plasma ([3]; 19 h level, trans-placental transfer): substantial transfer | elimination in the AF compared to maternal blood ([3]; amniotic fluid vs maternal blood): slower | concentrations in AF and maternal blood ([3]; both compartments): therapeutic concentrations

CN(C)CC[C@H](CSc1ccccc1)Nc1ccc(S(=O)(=O)NC(=O)c2ccc(N3CCN(Cc4ccccc4-c4ccc(Cl)cc4)CC3)cc2)cc1[N+](=O)[O-] [ABT-737]
frequency of chorio-decidua Annexin V-/7aad- (non-apoptotic) neutrophils ([4]; 0.1 µM, cultured 16 hr): did not show any significant effect | concentrations toxic to the cells ([4]; dose response curves generated using blood neutrophils, not shown): ≥ 1000 nM

Cc1ccc(NC(=O)c2cc3ccccc3c(/N=N/c3cc(S(=O)(=O)O)ccc3O)c2O)c(C)c1 [Compound 1.001]
effect on cell survival (primary splenocyte cells): some effect | inhibition of Noxa binding in FP assays [1]: strong inhibition | additivity for inhibition of A1-Noxa binding, checkerboard assay [1]: low level additivity

Cc1cc(O)ccc1/N=N/c1ccc2cc(S(=O)(=O)O)cc(S(=O)(=O)O)c2c1 [Compound 1.003]
additivity for inhibition of A1-Noxa binding, checkerboard assay [1]: low level additivity | inhibition of NOXA binding in combination [1]: cooperative inhibition

Cc1cc(N)ccc1/N=N/c1ccc(/N=N/c2ccc3cc(S(=O)(=O)O)cc(S(=O)(=O)O)c3c2)c(C)c1 [Compound 1.002]
IC50 ([1]; P4 inhibitor 79711 in combination with P2 inhibitor 97318, read-out: IC50 upon P2 and P4 ligand binding): 6.3 µM | IC50 ([1]; compound alone, inhibition of A1-NOXA binding, read-out: IC50): 17.1 µM
